From the supplement of paper PMC11061612

Columns and labels:
Assay in all cases: Bliss excess, mean over the matrix (fraction); higher = more synergy
[1] = test system: 22RV1 (Prostate Carcinoma)
Method in brief: (§1)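 Bliss excess equals the observed combination effect minus the expected value EA + EB − EA·EB, where EA and EB are the effects of each agent alone. Combination Emax is the second-highest inhibition within the matrix. Inhibition was scaled from CellTiter-Glo 2.0 luminescence, with 0 set by vehicle wells and 1 by blank wells, after 72 hours of two-drug dosing of cells plated in 1536-well plates.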

5637 (Bladder Carcinoma) = test system: 5637 (Bladder Carcinoma)
Method in brief: as §1

A101D (Melanoma) = test system: A101D (Melanoma)
Method in brief: as §1

[2] = test system: A253 (Head and Neck Carcinoma)
Method in brief: as §1

AU565 (Breast Carcinoma) = test system: AU565 (Breast Carcinoma)
Method in brief: as §1

[3] = test system: CESS (Acute Myeloid Leukemia)
Method in brief: as §1

[4] = test system: CGTH-W-1 (Thyroid Gland Carcinoma)
Method in brief: as §1

COLO-792 (Melanoma) = test system: COLO-792 (Melanoma)
Method in brief: as §1

[5] = test system: DMS-53 (Small Cell Lung Carcinoma)
Method in brief: as §1

[6] = test system: GA-10 (Burkitt's Lymphoma)
Method in brief: as §1

[7] = test system: GCT (Other Solid Carcinomas)
Method in brief: as §1

[8] = test system: HCC1395 (Breast Carcinoma)
Method in brief: as §1

[9] = test system: HT55 (Colorectal Carcinoma)
Method in brief: as §1

[10] = test system: JHU-022 (Oral Cavity Carcinoma)
Method in brief: as §1

[11] = test system: JVM-2 (B-Cell Non-Hodgkin's Lymphoma)
Method in brief: as §1

NB13 (Neuroblastoma) = test system: NB13 (Neuroblastoma)
Method in brief: as §1

[12] = test system: NCI-H2087 (Lung Adenocarcinoma)
Method in brief: as §1

PEO1 (Ovarian Carcinoma) = test system: PEO1 (Ovarian Carcinoma)
Method in brief: as §1

[13] = test system: SK-HEP-1 (Hepatocellular Carcinoma)
Method in brief: as §1

[14] = test system: SW620 (Colorectal Carcinoma)
Method in brief: as §1

Cn1cnc2c(F)c(Nc3ccc(Br)cc3Cl)c(C(=O)NOCCO)cc21 [Selumetinib] + CC(C)n1c(=O)n(C)c2cnc3cc(F)c(-c4ccc(OCCCN5CCCCC5)nc4)cc3c21 [AZD1390] (first compound max 10 µM, 7x7, partner max 0.3 µM)
Bliss excess [1]: -0.0538
Bliss excess (5637 (Bladder Carcinoma)): -0.0226
Bliss excess (A101D (Melanoma)): -0.0246
Bliss excess [2]: -0.0504
Bliss excess (AU565 (Breast Carcinoma)): 0.005
Bliss excess [3]: -0.0355
Bliss excess [4]: -0.0388
Bliss excess (COLO-792 (Melanoma)): -0.0088
Bliss excess [5]: -0.0267
Bliss excess [6]: -0.0227
Bliss excess [7]: -0.0054
Bliss excess [8]: -0.0327
Bliss excess [9]: -0.0388
Bliss excess [10]: 0.02
Bliss excess [11]: 0.0102
Bliss excess (NB13 (Neuroblastoma)): -0.0532
Bliss excess [12]: -0.0541
Bliss excess (PEO1 (Ovarian Carcinoma)): -0.0118
Bliss excess [13]: -0.0043
Bliss excess [14]: -0.0102

Cn1cnc2c(F)c(Nc3ccc(Br)cc3Cl)c(C(=O)NOCCO)cc21 [Selumetinib] + CCN(CCO)CCCOc1ccc2c(Nc3cc(CC(=O)Nc4cccc(F)c4)[nH]n3)ncnc2c1 [AZD2811] (first compound max 10 µM, 7x7, partner max 1 µM)
Bliss excess [1]: -0.0797
Bliss excess (5637 (Bladder Carcinoma)): 0.0276
Bliss excess (A101D (Melanoma)): -0.0718
Bliss excess [2]: -0.018
Bliss excess (AU565 (Breast Carcinoma)): -0.0167
Bliss excess [3]: 0.0943
Bliss excess [4]: -0.0329
Bliss excess (COLO-792 (Melanoma)): -0.0532
Bliss excess [5]: -0.0629
Bliss excess [6]: -0.0559
Bliss excess [7]: -0.0185
Bliss excess [8]: -0.008
Bliss excess [9]: 0.0032
Bliss excess [10]: 0.0079
Bliss excess [11]: 0.0315
Bliss excess (NB13 (Neuroblastoma)): -0.0829
Bliss excess [12]: -0.0497
Bliss excess (PEO1 (Ovarian Carcinoma)): -0.0252
Bliss excess [13]: -0.0421
Bliss excess [14]: 0.0738

Cn1cnc2c(F)c(Nc3ccc(Br)cc3Cl)c(C(=O)NOCCO)cc21 [Selumetinib] + C[C@@H]1COCCN1C2=NC(=NC(=C2)C3(CC3)[S@](=N)(=O)C)C4=C5C=CNC5=NC=C4 [AZD6738] (first compound max 10 µM, 7x7, partner max 10 µM)
Bliss excess [1]: 0.0144
Bliss excess (5637 (Bladder Carcinoma)): 0.0382
Bliss excess (A101D (Melanoma)): -0.0548
Bliss excess [2]: -0.0229
Bliss excess (AU565 (Breast Carcinoma)): -0.0014
Bliss excess [3]: -0.0205
Bliss excess [4]: -0.0232
Bliss excess (COLO-792 (Melanoma)): 0.0362
Bliss excess [5]: -0.0272
Bliss excess [6]: -0.0046
Bliss excess [7]: 0.0294
Bliss excess [8]: -0.0128
Bliss excess [9]: 0.004
Bliss excess [10]: -0.0175
Bliss excess [11]: -0.0344
Bliss excess (NB13 (Neuroblastoma)): -0.0446
Bliss excess [12]: -0.0057
Bliss excess (PEO1 (Ovarian Carcinoma)): -0.0357
Bliss excess [13]: -0.034
Bliss excess [14]: 0.0587

CC(=O)Nc1cccc(-n2c(=O)n(C3CC3)c(=O)c3c(Nc4ccc(I)cc4F)n(C)c(=O)c(C)c32)c1 [Trametinib] + Cc1nc(-c2cn3c(n2)-c2ccc(-c4cnn(C(C)(C)C(N)=O)c4)cc2OCC3)n(C(C)C)n1 [Taselisib] (first compound max 1 µM, 7x7, partner max 10 µM)
Bliss excess [1]: 0.0551
Bliss excess (5637 (Bladder Carcinoma)): 0.292
Bliss excess (A101D (Melanoma)): 0.0168
Bliss excess [2]: 0.145
Bliss excess (AU565 (Breast Carcinoma)): 0.102
Bliss excess [3]: 0.219
Bliss excess [4]: 0.174
Bliss excess (COLO-792 (Melanoma)): 0.113
Bliss excess [5]: 0.0285
Bliss excess [6]: 0.0619
Bliss excess [7]: 0.148
Bliss excess [8]: 0.0616
Bliss excess [9]: -0.0116
Bliss excess [10]: 0.0194
Bliss excess [11]: 0.0171
Bliss excess (NB13 (Neuroblastoma)): 0.0088
Bliss excess [12]: 0.163
Bliss excess (PEO1 (Ovarian Carcinoma)): 0.204
Bliss excess [13]: 0.0781
Bliss excess [14]: 0.0527

CC1(C)CCC(CN2CCN(c3ccc(C(=O)NS(=O)(=O)c4ccc(NCC5CCOCC5)c([N+](=O)[O-])c4)c(Oc4cnc5[nH]ccc5c4)c3)CC2)=C(c2ccc(Cl)cc2)C1 [Venetoclax] + C1CN(CCC1(C(=O)N[C@@H](CCO)C2=CC=C(C=C2)Cl)N)C3=NC=NC4=C3C=CN4 [Capivasertib] (first compound max 1 µM, 7x7, partner max 3 µM)
Bliss excess [1]: -0.0475
Bliss excess (5637 (Bladder Carcinoma)): -0.0513
Bliss excess (A101D (Melanoma)): -0.0652
Bliss excess [2]: -0.0084
Bliss excess (AU565 (Breast Carcinoma)): 0.0463
Bliss excess [3]: -0.0707
Bliss excess [4]: -0.0532
Bliss excess (COLO-792 (Melanoma)): -0.0203
Bliss excess [5]: 0.0707
Bliss excess [6]: -0.0614
Bliss excess [7]: -0.0401
Bliss excess [8]: -0.0806
Bliss excess [9]: -0.0183
Bliss excess [10]: -0.0729
Bliss excess [11]: -0.0118
Bliss excess (NB13 (Neuroblastoma)): -0.0288
Bliss excess [12]: -0.0553
Bliss excess (PEO1 (Ovarian Carcinoma)): -0.0564
Bliss excess [13]: -0.0525
Bliss excess [14]: -0.0511

CC1(C)CCC(CN2CCN(c3ccc(C(=O)NS(=O)(=O)c4ccc(NCC5CCOCC5)c([N+](=O)[O-])c4)c(Oc4cnc5[nH]ccc5c4)c3)CC2)=C(c2ccc(Cl)cc2)C1 [Venetoclax] + C=CCn1c(=O)c2cnc(Nc3ccc(N4CCN(C)CC4)cc3)nc2n1-c1cccc(C(C)(C)O)n1 [AZD1775] (first compound max 1 µM, partner max 1 µM)
Bliss excess [1]: 0.0156
Bliss excess (5637 (Bladder Carcinoma)): -0.0414
Bliss excess (A101D (Melanoma)): -0.0188
Bliss excess [2]: 0.0263
Bliss excess (AU565 (Breast Carcinoma)): 0.0756
Bliss excess [3]: -0.0236
Bliss excess [4]: -0.0114
Bliss excess (COLO-792 (Melanoma)): 0.021
Bliss excess [5]: 0.0804
Bliss excess [6]: -0.0553
Bliss excess [7]: -0.0339
Bliss excess [8]: 0.0202
Bliss excess [9]: -0.0016
Bliss excess [10]: -0.0218
Bliss excess [11]: 0.0333
Bliss excess (NB13 (Neuroblastoma)): 0.078
Bliss excess [12]: -0.0408
Bliss excess (PEO1 (Ovarian Carcinoma)): -0.0325
Bliss excess [13]: -0.0252
Bliss excess [14]: -0.0536

CC1(C)CCC(CN2CCN(c3ccc(C(=O)NS(=O)(=O)c4ccc(NCC5CCOCC5)c([N+](=O)[O-])c4)c(Oc4cnc5[nH]ccc5c4)c3)CC2)=C(c2ccc(Cl)cc2)C1 [Venetoclax] + CCN(CCO)CCCOc1ccc2c(Nc3cc(CC(=O)Nc4cccc(F)c4)[nH]n3)ncnc2c1 [AZD2811] (first compound max 1 µM, 7x7, partner max 1 µM)
Bliss excess [1]: -0.001
Bliss excess (5637 (Bladder Carcinoma)): -0.0229
Bliss excess (A101D (Melanoma)): -0.0182
Bliss excess [2]: 0.046
Bliss excess (AU565 (Breast Carcinoma)): 0.0097
Bliss excess [3]: 0.0083
Bliss excess [4]: -0.0078
Bliss excess (COLO-792 (Melanoma)): -0.0048
Bliss excess [5]: 0.069
Bliss excess [6]: 0.0033
Bliss excess [7]: -0.004
Bliss excess [8]: -0.01
Bliss excess [9]: 0.0034
Bliss excess [10]: -0.0139
Bliss excess [11]: 0.051
Bliss excess (NB13 (Neuroblastoma)): 0.0534
Bliss excess [12]: -0.0281
Bliss excess (PEO1 (Ovarian Carcinoma)): -0.0314
Bliss excess [13]: -0.0621
Bliss excess [14]: -0.0243

CC1(C)CCC(CN2CCN(c3ccc(C(=O)NS(=O)(=O)c4ccc(NCC5CCOCC5)c([N+](=O)[O-])c4)c(Oc4cnc5[nH]ccc5c4)c3)CC2)=C(c2ccc(Cl)cc2)C1 [Venetoclax] + CN(C)CCCOc1ccc(-c2ccc3ncc4c(c3c2)n(C2CCOCC2)c(=O)n4C)cn1 [AZD0156] (first compound max 1 µM, 7x7, partner max 1 µM)
Bliss excess [1]: -0.0277
Bliss excess (5637 (Bladder Carcinoma)): -0.0273
Bliss excess (A101D (Melanoma)): 0.0088
Bliss excess [2]: 0.0119
Bliss excess (AU565 (Breast Carcinoma)): 0.0206
Bliss excess [3]: -0.0638
Bliss excess [4]: -0.0286
Bliss excess (COLO-792 (Melanoma)): 0.0153
Bliss excess [5]: 0.0619
Bliss excess [6]: -0.0585
Bliss excess [7]: -0.0404
Bliss excess [8]: -0.0304
Bliss excess [9]: -0.0443
Bliss excess [10]: -0.0382
Bliss excess [11]: 0.0143
Bliss excess (NB13 (Neuroblastoma)): 0.021
Bliss excess [12]: -0.0389
Bliss excess (PEO1 (Ovarian Carcinoma)): -0.018
Bliss excess [13]: -0.057
Bliss excess [14]: -0.0142
